The results in this text go back to US20220016200A1, “PHARMACEUTICAL COMPOSITION FOR THE TREATMENT OF CYSTIC FIBROSIS” (GALENUS G.H. AG, priority 2018, published 2022).

Like-named read-outs stand apart in the source and are kept apart here. Bridge positions count the residues as written; N and C are the ends. Square brackets hold non-standard residues; d marks the D form. Peptide text beside a SMILES is read from it. * marks the point of attachment. Heptanoyl(5-Me) = CCC(C)CCCC(=O)*; Dab = NCC[C@H](N)C(=O)O

The test system of one experiment is A. haemolyticus 1655843. The experiment can be described thus: Checkerboard colistin sulphate (CS) plus teicoplanin (TP), MIC/FIC and MBC/FBC. The settings on record: agent alone, CAMHB, 5*10^5 CFU/ml; for MIC: A. haemolyticus 1655843, 24 h. The class given is cell-based, Acinetobacter haemolyticus. As for the experimental part:
Checkerboard analysis to determine minimal inhibitory concentration (MIC)/fractional inhibitory concentration (FIC) and minimal […] (MBC)/fractional […] (FBC) values of colistin sulphate (CS) plus teicoplanin (TP) for 6 Gram-negative strains with a bacterial load 5(1-10)*10^5 CFU/ml in a cation-adjusted Mueller-Hinton broth (CAMHB). • a. Antimicrobial stock solutions were prepared using sterile distilled water • b. CS was added along the ordinate; TP was added along the abscissa to 96 well, flat bottom, polystyrene panels with no treatment. Colistin alone was tested in triplicates. • c. Serial 2-fold dilutions starting with 640 μg/ml CS and 640 μg/ml TP were made; 15 μl volume of the serial dilutions were added for each agent to the appropriate wells; final volume at 30 μl • d. For each agent tested alone an additional 15 μl media was added to the well. 30 μl were added in control wells where none of the agent was tested. The negative control well contains 150 μl media without any additions • e. From an overnight bacterial culture in tryptic soy broth, 100 μL was added to 10 mL of fresh tryptic soy broth. This was then incubated at 37° C. for 1.5 hour at 180 rpm. • f. Bacteria in 120 μl CAMHB were added to each well (end concentration 5(1-10)*10^5 CFU/ml) • g. Plates were incubated at 37° C. in an ambient air incubator for 24 h • h. Turbidity at OD600 is determined with a plate photometer • i. By using a one-time inoculator 3 μl from each well of the 96-well plate were transferred to three blood agar plates. The plates were incubated over night at 37° C. in an ambient air incubator • j. MIC values are defined as lowest concentration which restricts bacterial growth to OD600 ≤0.1 • k. MBC values were determined by visual reading the lowest concentration which inhibits 99.9% of the growth of bacteria in the wells • l. Determination of the fractional inhibitory concentration (FIC) index and fractional bactericidal concentration (FBC) index and characterization of antimicrobial interactions was assessed […]
FIC calculation was carried out as: (MIC of drug A, tested in combination)/(MIC of drug A, tested alone)+(MIC of drug B, tested in combination)/(MIC of drug B, tested alone). FBC calculation was carried out just as well […]
Interactive categories were calculated from checkerboard analysis using MIC results from testing each agent alone and MIC results from the combination wells adjacent to the wells with growth in them […]
b. Indifference; FIC/FBC>0.5 to<4.0 c. Antagonism; FIC/FBC≥4.0 c. A. haemolyticus 1655843 (IHMA), colistin resistant

Another experiment relates to A. junii 1397597. As to the kind of experiment: Checkerboard fusidic acid (FD) and colistin sulfate (CS), MIC/FIC and MBC/FBC. The class given is cell-based, Acinetobacter junii. Here is the method:
Checkerboard assays between fusidic acid (FD) and colistin sulfate (CS) with a bacterial load 5(1-10)*10^5 CFU/ml in cationic adapted Mueller Hinton broth (CAMHB). • a. Antimicrobial stock solutions were prepared using sterile distilled water; • b. CS was added along the ordinate; FD was added along the abscissa to 96 well, flat bottom, polystyrene panels with no treatment. Colistin alone was tested in triplicates; • c. Serial 2-fold dilutions starting with 640 […] CS and 640 μg/ml FD were made; 15 μl volume of the serial dilutions were added for each agent to the appropriate wells—final volume at 30 μl; • d. For each agent tested alone an additional 15 μl media was added to the well. 30 μl were added in control wells where none of the agent was tested. The negative control well contains 150 μl media without any additions; • e. From an overnight bacterial culture in tryptic soy broth, 100 μL was added to 10 mL of fresh tryptic soy broth. This was then incubated at 37° C. for 1.5 hour at 180 rpm; • f. Bacteria in 120 μl CAMHB were added to each well (end concentration 5(1-10)*10^5 CFU/ml); • g. Plates were incubated at 37° C. in an ambient air incubator for 24 h • h. Turbidity at OD600 is determined with a plate photometer • i. By using a one-time inoculator 3 μl from each well of the 96-well plate were transferred to three blood agar plates. The plates were incubated over night at 37° C. in an ambient air incubator; • j. MIC values are defined as lowest concentration which restricts bacterial growth to OD600≤0.1; • k. MBC values were determined by visual reading the lowest concentration which inhibits 99.9% of the growth of bacteria in the wells; • l. Determination of the fractional inhibitory concentration (FIC) index and fractional bactericidal concentration (FBC) index and characterization of antimicrobial interactions was assessed;
FIC calculation was carried out as: (MIC of drug A, tested in combination)/(MIC of drug A, tested alone)+(MIC of drug B, tested in combination)/(MIC of drug B, tested alone). FBC calculation was carried out just as well;
Interactive categories were calculated from checkerboard analysis using MIC results from testing each agent alone and MIC results from the combination wells adjacent to the wells with growth in them.
Determination of the fractional inhibitory concentration (FIC) index and fractional bactericidal concentration (FBC) index and characterization of antimicrobial interactions was assessed:
(ii) Indifference; FIC/FBC>0.5 to <4.0
(iii) Antagonism; FIC/FBC≥4.0
a. Acinetobacter junii 1391597 (IHMA), colistin resistant (CS 2/2-2/8)

On to `CCC(C)CCCC(=O)N[C@@H](CCN)C(=O)N[C@H](C(=O)N[C@@H](CCN)C(=O)N[C@H]1CCNC(=O)[C@H]([C@@H](C)O)NC(=O)[C@H](CCN)NC(=O)[C@H](CCN)NC(=O)[C@H](CC(C)C)NC(=O)[C@@H](CC(C)C)NC(=O)[C@H](CCN)NC1=O)[C@@H](C)O` (stereo partly drawn) [CS, colistin sulphate] ({Heptanoyl(5-Me)}-[Dab]T[Dab][Dab][Dab][dL]L[Dab][Dab]T; lactam 4-C), for which the MIC in the experiment on A. haemolyticus 1655843 is above 16 µg/mL; in the experiment on A. haemolyticus 1655843 (listed as colistin), at least 4 µg/mL; in the experiment on A. junii 1397597 (A. junii 1397597, agent alone, CAMHB, 1*10^6 CFU/ml, 24 h), 2 mg/1l; in the experiment on A. junii 1397597 (Acinetobacter junii, 1397597, organism list of Example 3, repeated determinations, read-out: Colistin CS MIC), 2 µg/mL. For the same compound, the minimal bactericidal concentration (MBC) in the experiment on A. haemolyticus 1655843 (Acinetobacter haemolyticus, 1655843, A. haemolyticus, read-out: MBC) is above 16 µg/mL; with A. junii 1397597 (Acinetobacter junii, 1397597, A. junii 1397597, agent alone, CAMHB, 1*10^6 CFU/ml), 2 µg/mL.

The term MBC denotes the smallest concentration meeting the test's criterion for killing.
